Each compound was assayed against Aldehyde reductase AKR1A1 (Rattus norvegicus) (assay: Inhibition of Wistar rat kidney aldehyde reductase using D-glucuronate as substrate by spectrophotometry).

In order of rising IC50:
1. CCCNC(=O)CSc1nnc2c3cc(C)ccc3n(CC(=O)O)c2n1  19.6 µM
2. O=C(O)Cn1c2ccccc2c2nc3ccccc3nc21  24.8 µM
3. CC(C)(C)C(=O)c1cn(CC(=O)O)c2ccccc12  68.4 µM
4. O=C(O)Cn1ccc2ccccc21 [CHEBI:72814]  80.2 µM
